What was measured:
Rattus norvegicus = species: Rattus norvegicus; test: Unbound clearance in rat; format: ADME, organism-based; settings: in vivo
[1] = Displacement of [3H]gabapentin from voltage gated calcium channel alpha2delta from pig cerebral cortex by scintillation counting; format: tissue-based, Sus scrofa
[2] = Lipophilicity, log D of the compound; format: physicochemical; settings: octanol/water
[3] = Plasma protein binding in human; format: ADME, cell-free; settings: read-out: PPB (converted)
[4] = Half life in rat; format: ADME, organism-based; settings: in vivo
Canis familiaris = species: Canis familiaris; test: Unbound clearance in dog; format: ADME, organism-based, Canis lupus familiaris; settings: in vivo
Plasma = test: Cmax in human; format: ADME, organism-based; settings: in vivo
[5] = Tmax in human; format: ADME; settings: plasma
[6] = Half life in human; format: ADME, cell-free; settings: plasma
[7] = Half life in dog; format: ADME, organism-based, Canis lupus familiaris; settings: in vivo
[8] = Drug level in rat urine after 24 hrs; format: ADME; settings: read-out: Drug uptake

Row | SMILES | IC50 [1] | further results
1 | O=C(O)[C@@H]1C[C@H](OCc2ccc(Cl)cc2)CN1 | 48 nM | CL free (Rattus norvegicus): 26 mL/min/kg; logD [2]: -0.2; fraction unbound [3]: 0.17; half-life [4]: 24 min
2 | C[C@@H](CNCC(=O)O)Oc1ccc(Cl)cc1 | 523 nM | –
3 | O=C(O)CNCCSc1ccc(Cl)cc1 | 195 nM | –
4 | O=C(O)CNCCOc1ccc(Cl)cc1 | > 8000 nM | –
5 | O=C(O)[C@@H]1C[C@H](Sc2ccc(Cl)cc2)CN1 | 72 nM | –
6 | O=C(O)[C@@H]1C[C@H](Oc2ccc(Cl)cc2)CN1 | 32 nM | –
7 | O=C(O)[C@H]1C[C@@H](Oc2ccc(Cl)cc2)CN1 | > 10000 nM | –
8 | Cl.O=C(O)[C@@H]1C[C@H](Oc2cccc(Cl)c2)CN1 | 4 nM | CL free (Canis familiaris): 49 mL/min/kg; CL free (Rattus norvegicus): 41 mL/min/kg; logD [2]: -0.1; fraction unbound [3]: 0.07; half-life [4]: 24 min; Cmax (Plasma): 2400 nM; Tmax [5]: 30 min; half-life [6]: 138 min; half-life [7]: 90 min
9 | O=C(O)[C@@H]1C[C@H](Oc2ccccc2)CN1 | 102 nM | –
10 | O=C(O)[C@@H]1C[C@H](Oc2ccc(Cl)cn2)CN1 | 399 nM | –
11 | O=C(O)[C@@H]1C[C@H](Oc2ccc3c(c2)OCC3)CN1 | 11 nM | CL free (Rattus norvegicus): 111 mL/min/kg; logD [2]: -0.1; fraction unbound [3]: 0.11; half-life [4]: 60 min
12 | O=C(O)[C@@H]1C[C@H](Oc2ccc3ccccc3c2)CN1 | 30 nM | –
13 | O=C(O)[C@@H]1C[C@H](Oc2ccc(OC(F)(F)F)cc2)CN1 | 1680 nM | –
14 | O=C(O)[C@@H]1C[C@H](Oc2cccc(F)c2)CN1 | 17 nM | –
15 | O=C(O)[C@@H]1C[C@H](Oc2ccccc2Cl)CN1 | 52 nM | –
16 | CCC(C)O[C@@H]1CN[C@H](C(=O)O)C1 (stereo partly drawn) | 269 nM | –
17 | N#Cc1ccccc1O[C@@H]1CN[C@H](C(=O)O)C1 | > 10000 nM | –
18 | O=C(O)[C@@H]1C[C@H](Oc2cccc(O)c2)CN1 | 94 nM | –
19 | O=C(O)[C@@H]1C[C@H](Oc2ccc(Cl)c(F)c2)CN1 | 26 nM | CL free (Rattus norvegicus): 108 mL/min/kg; logD [2]: 0.1; fraction unbound [3]: 0.05; half-life [4]: 90 min
20 | O=C(O)[C@@H]1C[C@H](OCc2cccc(Cl)c2)CN1 | 14 nM | –
21 | O=C(O)[C@@H]1C[C@H](Sc2cccc(Cl)c2)CN1 | 7 nM | CL free (Rattus norvegicus): 56 mL/min/kg; logD [2]: 0.3; fraction unbound [3]: 0.16; half-life [4]: 18 min
22 | CC(C)(C)OC(=O)[C@@H]1C[C@H](Oc2cccc(Cl)c2)CN1 | 325 nM | –
23 | CC(C)(C)OC(=O)N1C[C@@H](Oc2cccc(Cl)c2)C[C@H]1C(=O)O | > 1000 nM | –
24 | CCCN1C[C@@H](Oc2cccc(Cl)c2)C[C@H]1C(=O)O | > 1000 nM | –
25 | COC(=O)[C@@H]1C[C@H](Oc2cccc(Cl)c2)CN1C(=O)OC(C)(C)C | – | dose excreted at 24 h [8]: 85%
26 | C[C@@]1(C(=O)O)C[C@H](Oc2cccc(Cl)c2)CN1 (stereo in doubt; 36) | 1260 nM | –
27 | C[C@@]1(C(=O)O)C[C@H](Oc2cccc(Cl)c2)CN1 (stereo in doubt; 37) | > 10000 nM | –
